Here are results for one compound from patent publication US7807777B2, “Marker peptide for alzheimer's disease” (Immuno-Biological Laboratories Co., Ltd., priority 2003, dated 2010).

The subject of assay [1] is presenilin. Kind of assay: Incubation of membrane fragments of HEK293 cells expressing Alcα, Alcβ or Alcγ, Western blotting with anti-Alc antibodies. It counts as biochemical. The note with it: Alcβ and Alcγ, final concentration 1 μM, 37° C. for 1 or 3 hrs, FIG. 8A to C. Here is the method:
DNAs encoding Alcα, Alcβ, or Alcγ were each inserted into a mammalian expression vector pcDNA3.1 (Invitrogen).
HEK293 cells were seeded in DMEM containing 10% fetal bovine serum in a 10-cm culture plate (area of base: 60 cm^2) and transfected with the expression vector prepared above by using a transfection reagent (LipofectAMINE 2000: Invitrogen). As a control, HEK293 cells were transfected with an empty pcDNA3.1 vector.
After the incubation for 24 hrs, the culture medium was removed and the cells were washed with ice-cooled PBS. Then, 10 ml of PBS was added again. The cells were detached from the plate by pipetting and transferred into a 15 ml Falcon tube. The cells were collected by centrifugation (1500 rpm, 10 min, low-speed refrigerated centrifuge: Beckmann) as a pellet of the cells. One milliliter of buffer D (0.25 M sucrose, 10 mM triethanolamine-acetate of pH 7.8, 5 μg/ml chymostatin, 5 μg/ml leupeptin, and 5 μg/ml pepstatin) was added to the pellet of the cells, and the cells were broken by 12 passages through a 27 G needle. Then, the broken cells were centrifuged with a TOMY TMA-6 rotor at 3000 rpm (1000×g) for 10 min at 4° C. to remove unbroken cells and nuclei and to obtain a nucleus-removed cell homogenate. […]
On the technique in general: In western blotting, separated proteins are transferred to a membrane and probed.

In assay [2] the test system is presenilin. The assay is described as follows: Western blotting of cell lysates of HEK293 cells expressing APP695, Alcα, Alcβ or Alcγ, with or without presenilin inhibitor. It counts as cell-based. The note with it: 1 μl of 1 mM DMSO solution per 1 ml culture medium, 24 hrs. On the procedure: A DNA encoding Alcα, Alcβ, Alcγ, or APP695 (an isoform of human APP consisting of 695 amino acids) was inserted into a mammalian expression vector pcDNA3.1 (Invitrogen).
HEK293 cells were seeded in DMEM (D5796: Sigma) containing 10% fetal bovine serum in a 6-well culture plate (area of base: 10 cm^2) and transfected with the expression vector prepared above by using a transfection reagent (LipofectAMINE 2000: Invitrogen). As a control, HEK293 cells were similarly transfected with an empty pcDNA3.1 vector.
One microliter of a DMSO solution containing 1 mM of a presenilin inhibitor L-685,458 (Calbiochem) was added to 1 ml of the culture medium. After the incubation for 24 hrs, a sample of the culture medium was taken. As a control, an equal quantity of DMSO instead of the L-685,458 solution was added to the culture medium and similarly incubated. Then, a sample of the culture medium was taken. The sample of the culture medium was added to 1 ml of HBST buffer (10 mM HEPES of pH 7.4, 150 mM sodium chloride, 0.5% Triton X-100, 5 μg/ml chymostatin, 5 μg/ml leupeptin, and […]) for extracting proteins of the cells. The solubilized cells were centrifuged (12000×g, 10 min) and supernatant was collected to recover the solubilized components. The solubilized components (7.5 μl) were added to 7.5 μl of a sample-buffer mixture (a mixture of 5 μl of 5×SDS sample buffer and 2.5 μl of 8 M urea solution) and boiled for 5 min. This sample was subjected to SDS-PAGE of 8/15% 2-stage gel and then the proteins were transferred on a nitrocellulose membrane for conducting Western blotting. The SDS-PAGE was performed according to the general method of Laemmli. As the primary antibody, an anti-APP cytoplasmic domain antibody (G369, 1/2000 dilution), anti-Alcα antibody (UT83, 0.3 μg/ml), anti-Alcβ antibody (UT99, 0.5 μg/ml), and anti-Alcγ antibody (UT105, 1/500 dilution) were used. The detection was performed by using an ECL kit (Pharmacia). The UT99 and UT105 are antibodies recognizing the C-terminals of Alcβ and Alcγ, respectively. FIG. 6 and FIG. 7A to C show the results.

`CC(C)C[C@H](NC(=O)[C@H](Cc1ccccc1)C[C@@H](O)[C@H](Cc1ccccc1)NC(=O)OC(C)(C)C)C(=O)N[C@@H](Cc1ccccc1)C(N)=O` [L-685,458]: in assay [1], the “fragments (such as Alcα-ICD) containing the C-terminal of each Alc” value is on record as “such fragments were not detected”. In assay [2] (HEK293 cells expressing APP695, FIG. 6), the “C-terminal fragment (CTFα) of APP in the cell lysate” value is “a large amount of the C-terminal fragment (CTFα) was detected in the cell lysate only when the presenilin inhibitor (L-685,458) was added”. In assay [2] (HEK293 cells expressing Alcα, FIG. 7A), the “C-terminal fragment (CTF1) of Alcα in the cell lysate” value is listed as “C-terminal fragments (CTF1) were detected only when the presenilin inhibitor was added”. Moreover, the “C-terminal fragment of Alcβ in the cell lysate” value in assay [2] (HEK293 cells expressing Alcβ, FIG. 7B) is given as “detected even when the presenilin inhibitor was not added”. In addition, the “C-terminal fragment (CTF1) of Alcγ in the cell lysate” value in assay [2] (HEK293 cells expressing Alcγ, FIG. 7C) is on record as “C-terminal fragments (CTF1) were detected only when the presenilin inhibitor was added”.
